# Where two headings read alike, the source gives them in different places.
# What was measured:
# [1] = logP determination by HPLC on a reversed-phase column (C18), EEC Directive 79/831 Annex V.A8; type: physicochemical
# Phaedon cochleariae = Phaedon cochleariae - spray test; type: in vivo; conditions: larvae on Chinese cabbage leaf discs, after 7 days
# Description: Phaedon cochleariae—Spray Test
# (§1) Solvent: 78.0 parts by weight of acetone and 1.5 parts by weight of dimethylformamide
# (§2) Emulsifier: alkylaryl polyglycol ether
# (§3) To produce an appropriate active ingredient formulation, 1 part by weight of active ingredient is dissolved using the specified parts by weight of solvent and made up with water containing an emulsifier concentration of 1000 ppm until the desired concentration is attained. To produce further test concentrations, the preparation is diluted with emulsifier-containing water.
# Discs of Chinese cabbage leaves (Brassica pekinensis) are sprayed with an active ingredient formulation of the desired concentration and, after drying, populated with larvae of the mustard beetle (Phaedon cochleariae).
# After 7 days, efficacy in % is determined. 100% means that all the beetle larvae have been killed; 0% means that no beetle larvae have been killed.
# Spodoptera frugiperda = Spodoptera frugiperda - spray test; type: in vivo; conditions: foliar, 168 h, caterpillars on maize leaf discs, after 7 days, read-out: efficacy; for pest or weed control at 100 g/ha: application rate 100 g/ha
# Description: Spodoptera frugiperda—Spray Test
# as §1, §2, §3
# Leaf discs of maize (Zea mays) are sprayed with an active ingredient formulation of the desired concentration and, after drying, populated with caterpillars of the armyworm (Spodoptera frugiperda).
# After 7 days, efficacy in % is determined. 100% means that all the caterpillars have been killed; 0% means that no caterpillars have been killed.
# Ctenocephalides felis [2] = assay: Ctenocephalides felis - oral test; type: in vivo; conditions: application rate 100 ppm in citrated cattle blood, adult fleas, kill after 2 days; for pest or weed control at 100 ppm: Ctenocephalides felis, po, 48 h, read-out: efficacy
# Summary of the method: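 Percentage mortality recorded at 2 days, where 0% means no fleas killed. Compound dissolved in DMSO and diluted in citrated cattle blood, which roughly 20 unfed adult C. felis imbibe via a parafilm membrane.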
# Lucilia cuprina = Lucilia cuprina test; type: in vivo; conditions: application rate 100 ppm, L1 larvae in minced horsemeat, kill after 2 days; for pest or weed control at 100 ppm: Lucilia cuprina, 48 h, read-out: efficacy
# Summary of the method: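 Mortality (%) of first-instar blowfly larvae, about 20 per vessel, recorded 2 days after exposure to compound-treated minced horsemeat. Compound dissolved in dimethyl sulphoxide, then water-diluted to the desired concentration.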
# Tetranychus urticae = Tetranychus urticae - spray test, OP-resistant; type: in vivo; conditions: foliar, 144 h, bean leaf discs, after 6 days, read-out: efficacy; for pest or weed control at 100 g/ha: application rate 100 g/ha
# Description: Tetranychus urticae—Spray Test, OP-Resistant
# as §1, §2, §3
# Discs of bean leaves (Phaseolus vulgaris) infested by all stages of the greenhouse red spider mite (Tetranychus urticae) are sprayed with an active ingredient formulation of the desired concentration.
# After 6 days, efficacy in % is determined. 100% means that all the spider mites have been killed; 0% means that none of the spider mites have been killed.
# Boophilus microplus = Boophilus microplus - injection test; type: in vivo; conditions: application rate 20 μg/animal, injected into engorged adult female ticks, laying of fertile eggs, after 7 days
# Summary of the method: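 DMSO formulation, 1 μl intra-abdominal injection, n=5 engorged adult females; climate-controlled room; score fertile eggs d7, unclear eggs held until larval hatch (~42 d); % efficacy, 100% = no fertile eggs.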
# Musca domestica = Musca domestica test; type: in vivo; conditions: application rate 100 ppm; adult houseflies; kill after 2 days
# Summary of the method: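 Ten adult Musca domestica are exposed to a sugar-soaked sponge carrying the water-diluted DMSO formulation; kill in % is read 2 days later.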
# [3] = system: Boophilus microplus Parkhurst strain, SP-resistant; assay: Boophilus microplus - dip test; type: in vivo; conditions: application rate 100 ppm; dip of engorged adult female ticks; laying of fertile eggs, after 7 days
# Summary of the method: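 Efficacy reflects suppression of fertile egg laying: 0% means all eggs fertile, 100% none, read at 7 days, doubtful eggs kept ~42 days for larval hatch. Treatment was a complete dip of 8–10 engorged adult female ticks (SP-resistant Parkhurst strain) in a water dilution of a DMSO stock.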
# Amblyomma hebraeum = Amblyomma hebraeum test (tick nymphs, immersion); type: in vivo; conditions: application rate 100 ppm; tick nymphs immersed for one minute; kill after 42 days
# Summary of the method: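 Mortality (%) is read 42 days post-treatment, where 0% means no ticks and 100% all ticks killed. Nymphs were dipped for 1 min into the test dilution (DMSO stock diluted with water) and afterwards stored on filter paper under controlled climate.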
# Ctenocephalides felis [4] = assay: Ctenocephalides felis - in vitro contact tests with adult cat fleas; type: in vivo; conditions: application rate 5 μg/cm^2 (=500 g/ha), after 48 h (dead or moribund)
# Summary of the method: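 Efficacy, as share of dead or moribund adult Ctenocephalides felis, read 48 h after placing 5-10 fleas in tubes coated by acetone solution (5 μg/cm^2 at 900 ppm). Incubation horizontal at room temperature, ambient humidity; immobile or uncoordinated fleas scored.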
# Rhipicephalus sanguineus = Rhipicephalus sanguineus - in vitro contact tests with adult brown dog ticks; type: in vivo; conditions: application rate 5 μg/cm^2, after 48 h (dead or moribund)
# Summary of the method: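 Test compound was dissolved in acetone p.a. (9 mg in 1 ml, then diluted), and 250 μl were spread evenly over the inner surface of 25 ml test tubes on an orbital shaker at 30 rpm for 2 h. Once the solvent evaporated, 5-10 adult Rhipicephalus sanguineus ticks were sealed in, kept dark at room temperature, and after 48 h placed on a 45-50° C. hotplate to score dead or moribund ticks.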
# [5] = reversed-phase HPLC column (C18), HPLC, reversed-phase C18, acetonitrile/water with formic acid, 55° C., read-out: logP
# [6] = reversed-phase HPLC column (C18), HPLC-MS method a); read-out: logP^a)
# [7] = Phaedon cochleariae, foliar, 168 h, application rate 100 g/ha, read-out: efficacy
# [8] = reversed-phase HPLC column (C18), HPLC-MS method a), Table I-T3; read-out: logP^a)
# [9] = HPLC-MS, reversed-phase column (C18)
smiles,measurement,setting,value
"Cc1cc(C(F)(C(F)(F)F)C(F)(F)F)cc(C)c1-c1ccn(-c2ccc(Cl)c(C(=O)NC3CC3)c2)n1 [I-T2-1, 2-chloro-N-cyclopropyl-5-[3-[2,6-dimethyl-4-[1,2,2,2-tetrafluoro-1-(trifluoromethyl)ethyl]phenyl]pyrazol-1-yl]benzamide]",chromatographic logP,[1]; [5],4.9
same,chromatographic logP,[1]; [6],4.9
same,pest or weed control at 100 g/ha,Phaedon cochleariae; [7],100%
"O=C(NC1CC1)c1cc(-c2cnn(-c3c(F)cc(C(F)(F)F)cc3F)c2)ccc1Cl [I-T3-48, 2-chloro-N-cyclopropyl-5-[1-[2,6-difluoro-4-(trifluoromethyl)phenyl]pyrazol-4-yl]benzamide]",pest or weed control at 100 g/ha,Spodoptera frugiperda,100%
same,pest or weed control at 100 ppm,Ctenocephalides felis [2],100%
same,chromatographic logP,[1]; [5],3.2
same,chromatographic logP,[1]; [8],3.2
same,chromatographic logP,[1]; [6],3.2
same,pest or weed control at 100 ppm,Lucilia cuprina,100%
same,pest or weed control at 100 g/ha,Phaedon cochleariae; [7],100%
"COc1cc(C(F)(F)F)cc(F)c1-n1cc(-c2ccc(Cl)c(C(=O)NC3CC3)c2)cn1 [I-T3-50, 2-chloro-N-cyclopropyl-5-[1-[2-fluoro-6-methoxy-4-(trifluoromethyl)phenyl]pyrazol-4-yl]benzamide]",pest or weed control at 100 g/ha,Spodoptera frugiperda,83%
same,pest or weed control at 100 g/ha,Tetranychus urticae,90%
same,pest or weed control at 100 ppm,Ctenocephalides felis [2],100%
same,chromatographic logP,[1]; [5],3.1
same,chromatographic logP,[1]; [8],3.1
same,chromatographic logP,[1]; [6],3.1
same,pest or weed control at 100 ppm,Lucilia cuprina,100%
same,pest or weed control at 100 g/ha,Phaedon cochleariae; [7],100%
Cc1ncc(-c2cnn(-c3c(Cl)cc(C(F)(C(F)(F)F)C(F)(F)F)cc3C(F)(F)F)c2)cc1C(=O)NC1(C#N)CC1 [I-T3-125],efficacy,Boophilus microplus,100%
same,efficacy,Musca domestica,100%
same,efficacy,[3],100%
same,efficacy,Ctenocephalides felis [2],100%
same,efficacy,Amblyomma hebraeum,100%
same,log P,[1]; [9],3.8
same,efficacy,Lucilia cuprina,100%
same,efficacy,Ctenocephalides felis [4],100%
same,efficacy,Phaedon cochleariae; application rate 100 g/ha,100%
"Cc1cc(C(F)(C(F)(F)F)C(F)(F)F)cc(C(F)(F)F)c1-n1cc(-c2ccc(Cl)c(C(=S)NC3CC3)c2)cn1 [I-T3-161, 2-chloro-N-cyclopropyl-5-[1-[2-methyl-4-[1,2,2,2-tetrafluoro-1-(trifluoromethyl)ethyl]-6-(trifluoromethyl)phenyl]pyrazol-4-yl]benzenecarbothioamide]",pest or weed control at 0.02 mg,"Boophilus microplus; Rhipicephalus microplus, 168 h, read-out: efficacy",100%
same,pest or weed control at 100 g/ha,Spodoptera frugiperda,100%
same,efficacy,Musca domestica,100%
same,pest or weed control at 100 g/ha,Tetranychus urticae,100%
same,pest or weed control at 100 ppm,Ctenocephalides felis [2],100%
same,chromatographic logP,[1]; [5],5
same,chromatographic logP,"[1]; reversed-phase HPLC column (C18), HPLC-MS method a), reversed-phase column (C18); read-out: logP^a)",5
same,chromatographic logP,"[1]; reversed-phase HPLC column (C18), HPLC-MS, reversed-phase column (C18), read-out: log P",5
same,pest or weed control at 100 ppm,Lucilia cuprina,100%
same,efficacy,Rhipicephalus sanguineus,100%
same,pest or weed control at 100 g/ha,Phaedon cochleariae; [7],100%
N#CC1(NC(=O)c2cc(-c3cnn(-c4c(Cl)cc(C(F)(C(F)(F)F)C(F)(F)F)cc4OC(F)(F)F)c3)ccc2Cl)CC1 [I-T3-163],efficacy,Boophilus microplus,100%
same,efficacy,Musca domestica,100%
same,efficacy,[3],100%
same,efficacy,Ctenocephalides felis [2],100%
same,efficacy,Amblyomma hebraeum,100%
same,log P,[1]; [9],4.5
same,efficacy,Lucilia cuprina,100%
same,efficacy,Ctenocephalides felis [4],100%
same,efficacy,Rhipicephalus sanguineus,100%
"Cc1cc(C(F)(C(F)(F)F)C(F)(F)F)cc(C)c1-c1cnn(-c2ccc(Cl)c(C(=O)NC3CC3)c2)c1 [I-T4-1, N-cyclopropyl-2-chloro-5-[4-[2,6-dimethyl-4-[1,2,2,2-tetrafluoro-1-(trifluoromethyl)ethyl]phenyl]pyrazol-1-yl]benzamide]",pest or weed control at 100 g/ha,Spodoptera frugiperda,100%
same,pest or weed control at 100 g/ha,Tetranychus urticae,100%
same,pest or weed control at 100 ppm,Ctenocephalides felis [2],100%
same,chromatographic logP,[1]; [5],4.74
same,pest or weed control at 100 ppm,Lucilia cuprina,100%
same,pest or weed control at 100 g/ha,Phaedon cochleariae; [7],100%
"Cc1cc(C(F)(C(F)(F)F)C(F)(F)F)cc(C)c1-c1cnn(-c2cnc(Cl)c(C(=O)NC3CC3)c2)c1 [I-T4-3, 2-chloro-N-cyclopropyl-5-[4-[2,6-dimethyl-4-[1,2,2,2-tetrafluoro-1-(trifluoromethyl)ethyl]phenyl]pyrazol-1-yl]pyridine-3-carboxamide]",pest or weed control at 100 g/ha,Spodoptera frugiperda,100%
same,pest or weed control at 100 g/ha,Tetranychus urticae,100%
same,pest or weed control at 100 ppm,Ctenocephalides felis [2],100%
same,chromatographic logP,[1]; [5],4.42
same,pest or weed control at 100 ppm,Lucilia cuprina,100%
same,pest or weed control at 100 g/ha,Phaedon cochleariae; [7],100%
"Cc1cc(C(F)(C(F)(F)F)C(F)(F)F)cc(C)c1-c1cc(-c2ccc(Cl)c(C(=O)NC3CC3)c2)on1 [I-T22-1, 2-chloro-N-cyclopropyl-5-[3-[2,6-dimethyl-4-[1,2,2,2-tetrafluoro-1-(trifluoromethyl)ethyl]phenyl]isoxazol-5-yl]benzamide]",pest or weed control at 100 g/ha,Spodoptera frugiperda,100%
same,pest or weed control at 100 g/ha,Tetranychus urticae,90%
same,pest or weed control at 100 ppm,Ctenocephalides felis [2],100%
same,chromatographic logP,[1]; [5],4.75
same,pest or weed control at 100 ppm,Lucilia cuprina,100%
same,pest or weed control at 100 g/ha,Phaedon cochleariae; [7],100%
Cc1cc(C(F)(C(F)(F)F)C(F)(F)F)cc(C)c1-c1cc(-c2ccc(Cl)c(C(=O)NC3(C#N)CC3)c2)on1 [I-T22-2],efficacy,Boophilus microplus,100%
same,efficacy,Musca domestica,100%
same,efficacy,[3],100%
same,efficacy,Ctenocephalides felis [2],100%
same,efficacy,Amblyomma hebraeum,100%
same,logP,"[1]; HPLC, reversed-phase C18, acetonitrile/water with formic acid, 55° C.",4.6
same,efficacy,Lucilia cuprina,100%
same,efficacy,Ctenocephalides felis [4],100%
same,efficacy,Rhipicephalus sanguineus,100%
"O=C(NC1CC1)c1cc(-c2cc(-c3c(Cl)cc(C(F)(C(F)(F)F)C(F)(F)F)cc3Cl)on2)ccc1Cl [I-T23-1, 2-chloro-N-cyclopropyl-5-[5-[2,6-dichloro-4-[1,2,2,2-tetrafluoro-1-(trifluoromethyl)ethyl]phenyl]isoxazol-3-yl]benzamide]",pest or weed control at 500 g/ha,Spodoptera frugiperda; application rate 500 g/ha,100%
same,pest or weed control at 500 g/ha,Tetranychus urticae; application rate 500 g/ha,100%
same,pest or weed control at 100 ppm,Ctenocephalides felis [2],100%
same,chromatographic logP,[1]; [5],4.96
same,pest or weed control at 100 ppm,Lucilia cuprina,100%
same,pest or weed control at 500 g/ha,"Phaedon cochleariae; Phaedon cochleariae, foliar, 168 h, application rate 500 g/ha, read-out: efficacy",100%

# — US9758485B2, “Compounds for controlling arthropods” (priority 2013, dated 2017)
